Where two headings read alike, the source gives them in different places.
How the values were obtained:
TAK1 = TAK1 (Homo sapiens (Human), UniProt O43318); experiment: Kinase inhibition assay (KinaseProfiler, 33P-ATP); type: biochemical; conditions: for remaining activity at 10 µM: TAK1(h), read-out: The percentage of the remaining active protein
MAPK1(h) = experiment: Kinase inhibition assay (KinaseProfiler, 33P-ATP); type: biochemical, human
HepG2 = experiment: Cell proliferation inhibition assay (MTT); type: cell-based; conditions: Homo sapiens, 72 hours, read-out: Proliferation inhibitory activity IC50
Method: (§1) The cells were seeded in 96-well plates with 200 μL of cell suspension per well and incubated overnight in a cell culture medium with a cell concentration of 1 2×10^4 cells/mL. The next day, the supernatant was discarded (the suspension cell was centrifuged before it) and the cells were treated with gradient concentrations of the test compound, respectively. […] After 72 hours, add 20 μL of MTT reagent at a concentration of 5 mg/mL per well. After incubation for 2-4 h, the supernatant was discarded and 150 μL of DMSO was added to each well. […] Relative cell proliferation inhibition rate=([MUT]-[MUT])×100%/[MUT]. The experiment was repeated at least 3 times. Experimental data were expressed as mean, data statistics using t test, P<0.05 for the difference was statistically significant.

plc/prf/5 = experiment: Cell proliferation inhibition assay (MTT); type: cell-based; conditions: Homo sapiens, 72 hours, read-out: Proliferation inhibitory activity IC50
Method: as §1

MDA-MB-468 = experiment: Cell proliferation inhibition assay (MTT); type: cell-based; conditions: Homo sapiens, read-out: Proliferation inhibitory activity IC50
Method: as §1

HCT116 = experiment: Cell proliferation inhibition assay (MTT); type: cell-based; conditions: Homo sapiens, read-out: Proliferation inhibitory activity IC50
Method: as §1

SW1990 = experiment: Cell proliferation inhibition assay (MTT); type: cell-based; conditions: Homo sapiens, read-out: Proliferation inhibitory activity IC50
Method: as §1

B-Raf(V600E) = B-Raf(V600E) (Homo sapiens (Human), UniProt P15056, V600E); experiment: Kinase inhibition assay (KinaseProfiler, 33P-ATP); conditions: ATP at Km
MEK1(h) = MEK1(h) (Homo sapiens (Human), UniProt Q02750); experiment: Kinase inhibition assay (KinaseProfiler, 33P-ATP); conditions: read-out: The percentage of the remaining active protein
Abl = Abl (Homo sapiens (Human), UniProt P00519); experiment: Kinase inhibition assay (KinaseProfiler, 33P-ATP); type: biochemical
HBL-1 = experiment: cells; conditions: Homo sapiens, HBL1, 72 h, read-out: Proliferation inhibitory activity IC50
Lck = Lck (Homo sapiens (Human), UniProt P06239); experiment: Kinase inhibition assay (KinaseProfiler, 33P-ATP); type: biochemical
ACK1 = ACK1 (Homo sapiens (Human), UniProt Q07912); experiment: Kinase inhibition assay (KinaseProfiler, 33P-ATP); type: biochemical; conditions: ACK1(h), read-out: The percentage of the remaining active protein
EphA7 = EphA7 (Homo sapiens (Human), UniProt Q15375); experiment: Kinase inhibition assay (KinaseProfiler, 33P-ATP); type: biochemical; conditions: EphA7(h), read-out: The percentage of the remaining active protein
TAO3 = TAO3 (Homo sapiens (Human), UniProt Q9H2K8); experiment: Kinase inhibition assay (KinaseProfiler, 33P-ATP); type: biochemical; conditions: TAO3(h), read-out: The percentage of the remaining active protein
PC-9 = experiment: Cell proliferation inhibition assay (MTT); type: cell-based; conditions: Homo sapiens, 72 hours, read-out: Proliferation inhibitory activity IC50
Method: as §1

DU145 = experiment: Cell proliferation inhibition assay (MTT); type: cell-based; conditions: Homo sapiens, DU-145, 72 hours, read-out: Proliferation inhibitory activity IC50
Method: as §1

AMPKα1(h) = AMPKα1(h) (Homo sapiens (Human), UniProt Q13131); experiment: Kinase inhibition assay (KinaseProfiler, 33P-ATP); type: biochemical; conditions: read-out: The percentage of the remaining active protein
CLK4(h) = CLK4(h) (Homo sapiens (Human), UniProt Q9HAZ1); experiment: Kinase inhibition assay (KinaseProfiler, 33P-ATP); type: biochemical; conditions: read-out: The percentage of the remaining active protein
MKK4(m) = MKK4(m) (Mus musculus (Mouse), UniProt P47809); experiment: Kinase inhibition assay (KinaseProfiler, 33P-ATP); type: biochemical; conditions: read-out: The percentage of the remaining active protein
MRCKα(h) = MRCKα(h) (Homo sapiens (Human), UniProt Q5VT25); experiment: Kinase inhibition assay (KinaseProfiler, 33P-ATP); type: biochemical; conditions: read-out: The percentage of the remaining active protein
MSSK1(h) = MSSK1(h) (Homo sapiens (Human), UniProt Q9UPE1); experiment: Kinase inhibition assay (KinaseProfiler, 33P-ATP); type: biochemical; conditions: read-out: The percentage of the remaining active protein
NEK6(h) = NEK6(h) (Homo sapiens (Human), UniProt Q9HC98); experiment: Kinase inhibition assay (KinaseProfiler, 33P-ATP); type: biochemical; conditions: read-out: The percentage of the remaining active protein
NLK(h) = NLK(h) (Homo sapiens (Human), UniProt Q9UBE8); experiment: Kinase inhibition assay (KinaseProfiler, 33P-ATP); type: biochemical; conditions: read-out: The percentage of the remaining active protein
PDGFRβ(h) = PDGFRβ(h) (Homo sapiens (Human), UniProt P09619); experiment: Kinase inhibition assay (KinaseProfiler, 33P-ATP); type: biochemical; conditions: read-out: The percentage of the remaining active protein
PKCγ(h) = PKCγ(h) (Homo sapiens (Human), UniProt P05129); experiment: Kinase inhibition assay (KinaseProfiler, 33P-ATP); type: biochemical; conditions: read-out: The percentage of the remaining active protein
PKCζ(h) = PKCζ(h) (Homo sapiens (Human), UniProt Q05513); experiment: Kinase inhibition assay (KinaseProfiler, 33P-ATP); type: biochemical; conditions: read-out: The percentage of the remaining active protein
PKD2(h) = PKD2(h) (Homo sapiens (Human), UniProt Q9BZL6); experiment: Kinase inhibition assay (KinaseProfiler, 33P-ATP); type: biochemical; conditions: read-out: The percentage of the remaining active protein
Ret(V804M)(h) = Ret(V804M)(h) (Homo sapiens (Human), UniProt P07949, V804M); experiment: Kinase inhibition assay (KinaseProfiler, 33P-ATP); type: biochemical; conditions: read-out: The percentage of the remaining active protein
ROCK-I(h) = ROCK-I(h) (Homo sapiens (Human), UniProt Q13464); experiment: Kinase inhibition assay (KinaseProfiler, 33P-ATP); type: biochemical; conditions: read-out: The percentage of the remaining active protein
Rsk2(h) = Rsk2(h) (Homo sapiens (Human), UniProt P51812); experiment: Kinase inhibition assay (KinaseProfiler, 33P-ATP); type: biochemical; conditions: read-out: The percentage of the remaining active protein
Rsk4(h) = Rsk4(h) (Homo sapiens (Human), UniProt Q9UK32); experiment: Kinase inhibition assay (KinaseProfiler, 33P-ATP); type: biochemical; conditions: read-out: The percentage of the remaining active protein
[1] = molecular target: PI3 Kinase (p110a/p85a)(m) (Mus musculus (Mouse), UniProt P42337); experiment: Kinase inhibition assay (KinaseProfiler, 33P-ATP); type: biochemical; conditions: read-out: The percentage of the remaining active protein
[2] = molecular target: PI3 Kinase (p110a(H1047R)/p85a)(m) (Mus musculus (Mouse), UniProt P42337, H1047R); experiment: Kinase inhibition assay (KinaseProfiler, 33P-ATP); type: biochemical; conditions: read-out: The percentage of the remaining active protein
[3] = molecular target: PI3 Kinase (p110b/p85b)(m) (Mus musculus (Mouse), UniProt Q8BTI9); experiment: Kinase inhibition assay (KinaseProfiler, 33P-ATP); type: biochemical; conditions: read-out: The percentage of the remaining active protein

TAK1, sequence (O43318 1-303): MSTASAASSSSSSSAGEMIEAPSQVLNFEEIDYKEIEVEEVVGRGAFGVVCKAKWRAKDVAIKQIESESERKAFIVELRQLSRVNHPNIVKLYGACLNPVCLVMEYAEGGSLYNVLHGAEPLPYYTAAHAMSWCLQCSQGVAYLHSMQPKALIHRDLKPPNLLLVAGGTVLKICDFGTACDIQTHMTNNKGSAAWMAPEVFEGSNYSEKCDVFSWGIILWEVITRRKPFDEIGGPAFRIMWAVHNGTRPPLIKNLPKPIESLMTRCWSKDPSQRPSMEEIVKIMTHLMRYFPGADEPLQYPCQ
MEK1(h), sequence (Q02750 whole entry): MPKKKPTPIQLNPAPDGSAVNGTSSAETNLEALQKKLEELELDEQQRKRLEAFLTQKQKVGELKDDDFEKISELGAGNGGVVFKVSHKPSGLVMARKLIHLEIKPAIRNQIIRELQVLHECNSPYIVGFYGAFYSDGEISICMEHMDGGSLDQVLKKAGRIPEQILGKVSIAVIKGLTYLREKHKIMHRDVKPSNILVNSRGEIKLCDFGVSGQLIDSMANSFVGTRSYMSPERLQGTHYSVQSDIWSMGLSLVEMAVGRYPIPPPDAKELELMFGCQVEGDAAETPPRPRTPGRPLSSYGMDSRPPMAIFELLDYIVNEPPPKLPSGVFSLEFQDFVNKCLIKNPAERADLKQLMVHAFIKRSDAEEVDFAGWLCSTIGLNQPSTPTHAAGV
Abl, sequence (P00519 whole entry): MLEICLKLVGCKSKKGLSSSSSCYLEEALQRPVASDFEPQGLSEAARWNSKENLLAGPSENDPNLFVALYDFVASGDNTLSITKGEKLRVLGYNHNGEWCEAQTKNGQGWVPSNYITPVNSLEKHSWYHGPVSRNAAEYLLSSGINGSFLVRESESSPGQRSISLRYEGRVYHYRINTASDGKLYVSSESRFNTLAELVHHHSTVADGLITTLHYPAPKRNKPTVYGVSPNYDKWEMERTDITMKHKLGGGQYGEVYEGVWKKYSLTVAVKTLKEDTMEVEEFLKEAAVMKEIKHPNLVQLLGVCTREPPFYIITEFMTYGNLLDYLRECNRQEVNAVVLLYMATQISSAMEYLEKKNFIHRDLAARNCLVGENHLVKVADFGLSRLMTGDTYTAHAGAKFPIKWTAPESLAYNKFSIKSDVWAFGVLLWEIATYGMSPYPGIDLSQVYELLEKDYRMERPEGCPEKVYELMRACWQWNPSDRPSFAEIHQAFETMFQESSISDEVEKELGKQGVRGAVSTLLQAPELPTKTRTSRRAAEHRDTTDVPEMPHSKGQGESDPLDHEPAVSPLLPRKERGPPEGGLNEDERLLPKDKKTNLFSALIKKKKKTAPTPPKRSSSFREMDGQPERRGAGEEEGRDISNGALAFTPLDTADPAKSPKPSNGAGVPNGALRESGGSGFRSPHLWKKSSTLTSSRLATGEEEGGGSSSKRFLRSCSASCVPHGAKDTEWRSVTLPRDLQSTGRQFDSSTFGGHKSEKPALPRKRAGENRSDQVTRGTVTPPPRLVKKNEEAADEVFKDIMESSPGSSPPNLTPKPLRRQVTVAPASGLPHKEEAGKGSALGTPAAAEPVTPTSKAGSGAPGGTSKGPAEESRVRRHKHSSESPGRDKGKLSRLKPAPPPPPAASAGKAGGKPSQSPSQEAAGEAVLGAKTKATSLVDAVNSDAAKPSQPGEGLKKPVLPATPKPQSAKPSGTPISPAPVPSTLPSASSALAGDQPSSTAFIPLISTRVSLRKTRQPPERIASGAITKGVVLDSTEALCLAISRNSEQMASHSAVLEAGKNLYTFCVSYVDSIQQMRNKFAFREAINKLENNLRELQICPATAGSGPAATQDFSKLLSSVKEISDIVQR
B-Raf(V600E), sequence (P15056 whole entry V600E): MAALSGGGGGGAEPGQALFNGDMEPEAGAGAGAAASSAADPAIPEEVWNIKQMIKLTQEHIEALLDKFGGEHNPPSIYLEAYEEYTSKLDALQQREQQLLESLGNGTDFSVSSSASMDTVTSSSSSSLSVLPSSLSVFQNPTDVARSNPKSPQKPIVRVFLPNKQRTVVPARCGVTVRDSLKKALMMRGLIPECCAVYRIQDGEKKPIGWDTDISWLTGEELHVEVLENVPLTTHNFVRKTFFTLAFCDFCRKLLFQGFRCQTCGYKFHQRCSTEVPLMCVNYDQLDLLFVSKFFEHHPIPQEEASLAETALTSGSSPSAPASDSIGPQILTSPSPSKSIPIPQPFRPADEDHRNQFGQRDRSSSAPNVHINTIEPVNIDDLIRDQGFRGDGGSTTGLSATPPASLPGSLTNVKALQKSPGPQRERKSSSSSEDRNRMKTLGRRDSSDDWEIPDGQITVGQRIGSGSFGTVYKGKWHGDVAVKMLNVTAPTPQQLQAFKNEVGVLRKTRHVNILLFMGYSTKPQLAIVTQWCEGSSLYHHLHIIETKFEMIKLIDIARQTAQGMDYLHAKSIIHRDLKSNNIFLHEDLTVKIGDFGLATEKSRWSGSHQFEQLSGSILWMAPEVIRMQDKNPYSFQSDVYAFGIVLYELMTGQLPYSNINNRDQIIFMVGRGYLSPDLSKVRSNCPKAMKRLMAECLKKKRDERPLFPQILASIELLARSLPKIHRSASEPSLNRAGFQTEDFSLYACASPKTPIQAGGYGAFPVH
Lck, sequence (P06239 whole entry): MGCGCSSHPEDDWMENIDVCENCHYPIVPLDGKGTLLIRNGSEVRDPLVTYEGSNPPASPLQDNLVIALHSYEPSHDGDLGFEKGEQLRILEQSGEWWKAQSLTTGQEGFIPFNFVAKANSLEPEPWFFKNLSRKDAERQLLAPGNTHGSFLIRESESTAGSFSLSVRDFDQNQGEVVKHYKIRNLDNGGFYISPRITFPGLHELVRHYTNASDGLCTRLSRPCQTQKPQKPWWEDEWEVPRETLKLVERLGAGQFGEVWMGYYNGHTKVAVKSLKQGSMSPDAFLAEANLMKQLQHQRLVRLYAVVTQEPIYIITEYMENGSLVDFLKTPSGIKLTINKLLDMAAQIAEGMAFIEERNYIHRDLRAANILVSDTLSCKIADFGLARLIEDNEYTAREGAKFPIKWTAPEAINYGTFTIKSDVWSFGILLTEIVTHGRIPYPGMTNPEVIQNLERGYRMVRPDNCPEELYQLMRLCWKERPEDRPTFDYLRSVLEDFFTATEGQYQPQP
PI3 Kinase (p110a(H1047R)/p85a)(m), sequence (P42337 whole entry H1047R): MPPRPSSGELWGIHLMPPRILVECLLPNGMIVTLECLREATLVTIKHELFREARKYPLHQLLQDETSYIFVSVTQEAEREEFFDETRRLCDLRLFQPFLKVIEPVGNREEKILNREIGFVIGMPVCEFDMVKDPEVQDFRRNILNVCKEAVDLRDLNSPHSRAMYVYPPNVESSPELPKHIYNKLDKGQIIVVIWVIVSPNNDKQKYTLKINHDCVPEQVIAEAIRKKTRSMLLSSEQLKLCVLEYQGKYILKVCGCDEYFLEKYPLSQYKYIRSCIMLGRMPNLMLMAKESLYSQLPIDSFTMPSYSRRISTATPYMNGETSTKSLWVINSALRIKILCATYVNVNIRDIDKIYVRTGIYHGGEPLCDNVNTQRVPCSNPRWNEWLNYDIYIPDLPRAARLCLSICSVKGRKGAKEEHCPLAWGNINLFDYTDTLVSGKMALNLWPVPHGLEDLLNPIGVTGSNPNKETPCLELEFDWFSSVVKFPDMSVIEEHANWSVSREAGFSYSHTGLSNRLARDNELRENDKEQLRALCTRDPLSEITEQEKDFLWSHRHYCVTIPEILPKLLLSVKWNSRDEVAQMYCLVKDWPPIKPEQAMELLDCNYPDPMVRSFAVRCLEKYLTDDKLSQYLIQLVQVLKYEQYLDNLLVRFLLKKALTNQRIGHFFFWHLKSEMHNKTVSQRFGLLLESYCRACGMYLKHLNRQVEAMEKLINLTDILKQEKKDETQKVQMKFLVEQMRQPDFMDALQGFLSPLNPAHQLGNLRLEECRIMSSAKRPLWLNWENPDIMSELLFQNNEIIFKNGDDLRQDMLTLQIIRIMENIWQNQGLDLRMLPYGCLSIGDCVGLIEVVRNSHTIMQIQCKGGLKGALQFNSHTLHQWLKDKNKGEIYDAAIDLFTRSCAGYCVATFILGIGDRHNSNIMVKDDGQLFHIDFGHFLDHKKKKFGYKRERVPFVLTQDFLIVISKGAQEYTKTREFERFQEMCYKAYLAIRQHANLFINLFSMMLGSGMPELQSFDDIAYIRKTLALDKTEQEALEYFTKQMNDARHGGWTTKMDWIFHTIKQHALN
PI3 Kinase (p110a(H1047R)/p85a)(m), sequence (P26450 whole entry partner): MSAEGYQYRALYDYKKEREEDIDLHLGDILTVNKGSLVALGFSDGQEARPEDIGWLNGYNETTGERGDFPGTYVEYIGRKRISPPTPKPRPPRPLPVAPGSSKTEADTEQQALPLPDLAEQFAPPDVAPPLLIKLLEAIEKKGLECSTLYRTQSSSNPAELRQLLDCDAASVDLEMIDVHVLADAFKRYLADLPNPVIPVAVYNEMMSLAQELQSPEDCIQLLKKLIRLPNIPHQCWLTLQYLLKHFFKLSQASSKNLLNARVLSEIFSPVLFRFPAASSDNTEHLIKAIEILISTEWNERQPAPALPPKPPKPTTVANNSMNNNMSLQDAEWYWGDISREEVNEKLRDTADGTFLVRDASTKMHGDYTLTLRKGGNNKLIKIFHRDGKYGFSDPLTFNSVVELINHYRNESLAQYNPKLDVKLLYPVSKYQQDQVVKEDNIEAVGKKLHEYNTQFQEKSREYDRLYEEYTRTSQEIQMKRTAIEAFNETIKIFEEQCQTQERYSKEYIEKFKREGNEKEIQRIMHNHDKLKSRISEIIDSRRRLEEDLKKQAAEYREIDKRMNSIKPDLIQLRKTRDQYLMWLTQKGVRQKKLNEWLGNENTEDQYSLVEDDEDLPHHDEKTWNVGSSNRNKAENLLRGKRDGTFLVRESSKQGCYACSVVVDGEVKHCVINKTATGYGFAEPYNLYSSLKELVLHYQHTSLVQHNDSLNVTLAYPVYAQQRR
PI3 Kinase (p110a/p85a)(m), sequence (P42337 whole entry): as the sequence (P42337 whole entry H1047R) above, with R1047H counted along it
PI3 Kinase (p110a/p85a)(m), sequence (P26450 whole entry partner): as the sequence (P26450 whole entry partner) above

## Cc1ccc(NC(=O)c2cccc(C(F)(F)F)c2)cc1C#Cc1nn(C2CCN(C)CC2)c2ncnc(N)c12 [Compound 31]
TAK1; compound at 10 μM
  remaining activity at 10 µM: 2%
TAK1; TAK1, ATP at Km
  IC50: 203 nM
MAPK1(h); compound at 10 μM
  The percentage of the remaining active protein: 66%
HepG2
  IC50: 6170 nM
plc/prf/5
  IC50: 3970 nM
MDA-MB-468; MDA-MB-468, MTT, 72 hours
  IC50: 3220 nM
HCT116; HCT-116, HCT116, MTT, 72 hours
  IC50: 230 nM
SW1990; SW1990, MTT, 72 hours
  IC50: 206 nM
B-Raf(V600E)
  IC50: 5 nM
MEK1(h)
  remaining activity at 10 µM: 52%

## CCn1nc(C#Cc2cc(C(=O)Nc3ccc(CN4CCN(C)CC4)c(C(F)(F)F)c3)ccc2C)c2c(N)ncnc21 [Compound 3]
Abl; Abl, ATP at Km
  IC50: < 1 nM
MDA-MB-468; MDA-MB-468, 72 h
  IC50: 4480 nM
HCT116; HCT-116, 72 h
  IC50: 178 nM
SW1990; SW1990, 72 h
  IC50: 356 nM
HBL-1
  IC50: ~10000 nM
B-Raf(V600E)
  IC50: 15 nM

## Cc1ccc(NC(=O)c2ccc(C)c(C(F)(F)F)c2)cc1C#Cc1nn([C@H]2CC[C@H](O)CC2)c2ncnc(N)c12 [Compound 93]
Abl; Abl(h), 10 μM, read-out: The percentage of the remaining active protein
  remaining activity at 10 µM: -3%
TAK1; 10 μM
  remaining activity at 10 µM: 1%
Lck; Lck(h), 10 μM, read-out: The percentage of the remaining active protein
  remaining activity at 10 µM: 0%
Lck; Lck, ATP at Km
  IC50: 14 nM
MAPK1(h); 10 μM
  The percentage of the remaining active protein: 87%
ACK1
  remaining activity at 10 µM: 4%
EphA7
  remaining activity at 10 µM: 0%
TAO3
  remaining activity at 10 µM: 2%
HepG2
  IC50: ~10000 nM
plc/prf/5
  IC50: ~10000 nM
PC-9
  IC50: 100 to 300 nM
DU145
  IC50: > 10000 nM
AMPKα1(h)
  remaining activity at 10 µM: 109%
CLK4(h)
  remaining activity at 10 µM: 58%
MKK4(m)
  remaining activity at 10 µM: 49%
MRCKα(h)
  remaining activity at 10 µM: 101%
MSSK1(h)
  remaining activity at 10 µM: 56%
NEK6(h)
  remaining activity at 10 µM: 98%
NLK(h)
  remaining activity at 10 µM: 82%
PDGFRβ(h)
  remaining activity at 10 µM: 87%
PKCγ(h)
  remaining activity at 10 µM: 90%
PKCζ(h)
  remaining activity at 10 µM: 99%
PKD2(h)
  remaining activity at 10 µM: 108%
Ret(V804M)(h)
  remaining activity at 10 µM: -2%
ROCK-I(h)
  remaining activity at 10 µM: 126%
Rsk2(h)
  remaining activity at 10 µM: 44%
Rsk4(h)
  remaining activity at 10 µM: 44%
[1]
  remaining activity at 10 µM: 90%
[2]
  remaining activity at 10 µM: 94%
[3]
  remaining activity at 10 µM: 93%
MEK1(h)
  remaining activity at 10 µM: 34%

Reference: US10266537B2, “3-acetylenyl-pyrazole-pyrimidine derivative, and preparation method therefor and uses thereof” (Si Chuan University, priority 2015, dated 2019)
